{"source": "paper PMC6709486", "about": "“Safety, Tolerability, Pharmacokinetics, and Drug Interaction Potential of SPR741, an Intravenous Potentiator, after Single and Multiple Ascending Doses and When Combined with β-Lactam Antibiotics in Healthy Subjects” (Antimicrobial Agents and Chemotherapy, 2019)", "key": {"[1]": {"test": "MAD phase safety and tolerability", "format": "in vivo, human", "description": "The SAD/MAD study was a phase 1, double-blind, placebo-controlled, multicohort trial. Part 1 used a SAD design according to which subjects received a single i.v. dose of SPR741. Part 2 used a MAD design in which subjects received multiple daily i.v. doses of SPR741 over a period of 14 days. The objective was to assess the safety/tolerability and PK of single and multiple ascending doses of SPR741.\n(§1) In the SAD phase, healthy volunteers were screened within 28 days prior to dosing. Subjects were admitted to the clinical facility on day −1 for up to 3 days. A single dose of SPR741 (or placebo) was administered on day 1. Following completion of all safety assessments and sampling for PK analyses, subjects were discharged on day 2. A follow-up visit occurred 5 to 7 days after day 1 dosing. In the MAD phase, all subjects were admitted to the clinical facility on day −1. Dosing commenced on the morning of day 1. Three doses were administered daily at approximately 8 (±0.5)-h intervals for a total of 14 consecutive days. The last dose was administered on the morning of day 14. Blood and urine samples were collected for assessment of PK parameters. Subjects were discharged on day 16 following completion of all PK sample collection and safety assessments, and a follow-up visit occurred 5 to 7 days after the last dose.\nThe MAD phase of the study began after safety and tolerability were confirmed in cohort 5, and the appropriate dose level was established. Two subjects received placebo, and six subjects received SPR741 doses of 50, 150, 400 or 600 mg q8h for 14 days. In the first cohort of the MAD phase (50 mg q8h), two subjects (sentinels) began dosing with SPR741 or placebo 72 h prior to dosing of the remaining subjects in this cohort. The remaining six subjects were dosed only after no safety concerns were identified by the Safety Monitoring Group at 72 h. After each MAD dose cohort had completed administration of study drug and all evaluations, the Safety Monitoring Group reviewed blinded cumulative safety data (including the day 19 to 21 follow-up data) to confirm the safety and tolerability of study drug.\nFor both studies, safety assessments included clinical laboratory testing (hematology, coagulation, serum chemistry, renal chemistry, and urinalysis), vital signs (blood pressure, heart rate, body temperature, and respiratory rate), physical examination, and triplicate 12-lead ECGs. […] Adverse events were recorded at each study visit."}, "[2]": {"set-up": "species or system human", "settings": "in vivo", "description": "The SAD/MAD study was a phase 1, double-blind, placebo-controlled, multicohort trial. Part 1 used a SAD design according to which subjects received a single i.v. dose of SPR741. Part 2 used a MAD design in which subjects received multiple daily i.v. doses of SPR741 over a period of 14 days. The objective was to assess the safety/tolerability and PK of single and multiple ascending doses of SPR741. In the SAD phase, healthy volunteers were screened within 28 days prior to dosing. Subjects were admitted to the clinical facility on day −1 for up to 3 days. A single dose of SPR741 (or placebo) was administered on day 1. Following completion of all safety assessments and sampling for PK analyses, subjects were discharged on day 2. A follow-up visit occurred 5 to 7 days after day 1 dosing. In the MAD phase, all subjects were admitted to the clinical facility on day −1. Dosing commenced on the morning of day 1. Three doses were administered daily at approximately 8 (±0.5)-h intervals for a total of 14 consecutive days. The last dose was administered on the morning of day 14. Blood and urine samples were collected for assessment of PK parameters. Subjects were discharged on day 16 following completion of all PK sample collection and safety assessments, and a follow-up visit occurred 5 to 7 days after the last dose. In the SAD phase, subjects were randomized to one of eight cohorts that received doses of 5, 15, 50, 100, 200, 400, 600 or 800 mg of SPR741. Within each cohort, two subjects received placebo, and six received SPR741. In cohort 1, two subjects (sentinels) were dosed with SPR741 or placebo 48 h prior to dosing of the remaining subjects. The remaining six subjects were dosed only after no safety concerns were identified in the sentinel subjects. After each dose cohort had completed administration of study drug and evaluation, a Safety Monitoring Group reviewed blinded cumulative safety data (including day 5 to day 7 follow-up data) to confirm the safety and tolerability of SPR741. For both studies, safety assessments included clinical laboratory testing (hematology, coagulation, serum chemistry, renal chemistry, and urinalysis), vital signs (blood pressure, heart rate, body temperature, and respiratory rate), physical examination, and triplicate 12-lead ECGs. […] Adverse events were recorded at each study visit."}, "[3]": {"set-up": "species or system human", "settings": "in vivo", "protocol": "as §1", "remark": "listed apart in the source"}}, "note": "Peptide text beside a SMILES is read from it."}
{"compound": "CC(=O)N[C@H](C(=O)N[C@H](CO)C(=O)N[C@H]1CCNC(=O)[C@H]([C@@H](C)O)NC(=O)[C@H](CCN)NC(=O)[C@H](CCN)NC(=O)[C@H](CC(C)C)NC(=O)[C@@H](Cc2ccccc2)NC(=O)[C@H](CCN)NC1=O)[C@@H](C)O", "note": "[SPR741] (HELM PEPTIDE1{[ac].T.[dS].[Dab].[Dab].[dF].L.[Dab].[Dab].T}$PEPTIDE1,PEPTIDE1,4:R3-10:R2$$$V2.0)", "values": [{"measurement": "deaths or severe TEAEs", "setting": "[1]; MAD", "value": "No deaths or severe TEAEs occurred"}, {"measurement": "Abdominal pain: No. (%) of subjects", "setting": "[1]; in vivo", "value": "2 (8)"}, {"measurement": "Abdominal pain: No. of events", "setting": "[1]; in vivo", "value": 2}, {"measurement": "All systemic TEAEs: No. (%) of subjects", "setting": "[1]; in vivo", "value": "24 (100)"}, {"measurement": "All systemic TEAEs: No. of events", "setting": "[1]; in vivo", "value": 178}, {"measurement": "Arthralgia: No. (%) of subjects", "setting": "[1]; in vivo", "value": "2 (8)"}, {"measurement": "Arthralgia: No. of events", "setting": "[1]; in vivo", "value": 3}, {"measurement": "Back pain: No. (%) of subjects", "setting": "[1]; in vivo", "value": "2 (8)"}, {"measurement": "Back pain: No. of events", "setting": "[1]; in vivo", "value": 2}, {"measurement": "Chest discomfort: No. (%) of subjects", "setting": "[1]; in vivo", "value": "2 (8)"}, {"measurement": "Chest discomfort: No. of events", "setting": "[1]; in vivo", "value": 2}, {"measurement": "Contusion: No. (%) of subjects", "setting": "[1]; in vivo", "value": "2 (8)"}, {"measurement": "Contusion: No. of events", "setting": "[1]; in vivo", "value": 2}, {"measurement": "CrCl on day 16", "setting": "[1]; in vivo", "value": 65, "unit": "mL/min"}, {"measurement": "Creatinine clearance decrease: No. of events", "setting": "[1]; in vivo", "value": 6}, {"measurement": "Dermatitis contact: No. of events", "setting": "[1]; in vivo", "value": 7}, {"measurement": "Diarrhea: No. of events", "setting": "[1]; in vivo", "value": 3}, {"measurement": "Dysesthesia: No. (%) of subjects", "setting": "[1]; in vivo", "value": "2 (8)"}, {"measurement": "Dysesthesia: No. of events", "setting": "[1]; in vivo", "value": 2}, {"measurement": "Headache: No. of events", "setting": "[1]; in vivo", "value": 8}, {"measurement": "Nausea: No. (%) of subjects", "setting": "[1]; in vivo", "value": "2 (8)"}, {"measurement": "Nausea: No. of events", "setting": "[1]; in vivo", "value": 2}, {"measurement": "Rhinitis: No. (%) of subjects", "setting": "[1]; in vivo", "value": "2 (8)"}, {"measurement": "Rhinitis: No. of events", "setting": "[1]; in vivo", "value": 2}, {"measurement": "catheter site erythema related to the PK cannula", "setting": "[1]; in vivo", "value": 13, "unit": "%"}, {"measurement": "catheter site pain related to the PK cannula", "setting": "[1]; in vivo", "value": 25, "unit": "%"}, {"measurement": "decline in CrCl", "setting": "[1]; in vivo", "value": 50, "unit": "%"}, {"measurement": "infusion site phlebitis, SPR741 subjects", "setting": "[1]; in vivo", "value": 3}, {"measurement": "infusion site thrombosis, SPR741 subjects", "setting": "[1]; in vivo", "value": 2}, {"measurement": "serious AE of atrial fibrillation, probably related to treatment, withdrawn", "setting": "[1]; in vivo", "value": "One subject"}, {"measurement": "infusion site reactions (site bruising, erythema, pain, phlebitis, swelling), total number", "setting": "[1]; in vivo, iv", "value": 81}, {"measurement": "TEAE classified as a renal or urinary disorder", "setting": "[2]", "value": "No subjects"}, {"measurement": "abnormal serum creatinine value", "setting": "[2]", "value": "no subject"}, {"measurement": "headache: No. (%) of subjects", "setting": "[2]", "value": "4 (8%)"}, {"measurement": "severe TEAE or serious adverse event", "setting": "[2]", "value": "No subject"}, {"measurement": "fraction of the dose excreted from 0 to 24 h postdose on day 14", "setting": "[3]", "value": 139.1, "unit": "%"}]}
